The text below walks through data of patent US12679878B2, “CRF2 receptor agonists and their use in therapy” (SANOFI, priority 2020, dated 2026).

Molecules are shown by their SMILES. Like-named read-outs stand apart in the source and are kept apart here. Starred links: 1 amine or outer side, 2 acyl side, 3 side chain; linkers in the order of their positions; H or OH if unused. Non-standard residues stand in square brackets, D forms with d. Residues, ends and D or L forms follow the SMILES beside them. Groups on a side chain read outwards from the residue. *: point of attachment. C20 diacid = O=C(O)CCCCCCCCCCCCCCCCCCC(=O)*; C18 diacid = O=C(O)CCCCCCCCCCCCCCCCC(=O)*; γGlu = O=C(O)[C@H](CCC(=O)[*:2])N[*:1]; AEEA = NCCOCCOCC(=O)O; Aib = CC(C)(N)C(=O)O

What is called EC50 is the concentration at which the effect is half-maximal. Usually Emax stands for the greatest response seen or fitted, relative to the assay's reference.

What all share (format): cell-based
Assay [1] addresses T1, CRF1R receptor (Homo sapiens, UniProt P34998).
T1 construct: host or cells: CHO-K1 clone 2
T1 sequence (P34998 24-415): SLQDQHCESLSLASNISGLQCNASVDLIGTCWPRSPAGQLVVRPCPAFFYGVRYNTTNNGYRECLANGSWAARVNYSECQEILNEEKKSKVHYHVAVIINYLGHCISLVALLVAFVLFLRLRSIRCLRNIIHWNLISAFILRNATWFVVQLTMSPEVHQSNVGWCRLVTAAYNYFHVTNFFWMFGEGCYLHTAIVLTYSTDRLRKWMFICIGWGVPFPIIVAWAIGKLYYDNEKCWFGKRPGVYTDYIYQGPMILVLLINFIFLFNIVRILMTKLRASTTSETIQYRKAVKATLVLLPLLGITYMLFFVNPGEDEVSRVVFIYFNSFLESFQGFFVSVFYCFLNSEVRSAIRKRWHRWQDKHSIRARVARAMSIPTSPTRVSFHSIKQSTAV
As to the kind of experiment: cAMP activity at anti-target CRF1R, CRF1R-overexpression CHO cell line (Example 9). The note with it: CRF1R-overexpression CHO cell line; for EC50: 0% HSA; for Emax: read-out: Emax (%). The gist of the method:
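Using thawed CRF1R-overexpressing CHO cells at 2000 per well, compound is applied for 30 min at RT in HBSS/HEPES buffer with IBMX. Cellular cAMP content is determined via HTRF, and percent activity is calculated against 1000 nM UCN2 defined as 100%.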

Assay [2] relates to rat CRF2R α receptor. As to the kind of experiment: cAMP agonism at rat CRF2R α receptor in A7R5 rat aortic smooth muscle cells (Example 8). The following applies: cAMP HTRF, A7R5 rat aortic smooth muscle cell line, 0% HSA. The gist of the method:
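Potency (EC50) is the concentration reaching half-maximal activation, with responses scaled so that 1000 nM urocortin 2 equals 100%. Intracellular cAMP was quantified by homogeneous time-resolved fluorescence at 665/620 nm, 1 h after lysis-buffer reagents. Compound stimulation lasted 30 min at room temperature on 2000 IBMX-treated (2 mM) cells per well in HEPES-buffered HBSS.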
A general note: In TR-FRET formats the signal depends on donor and acceptor labels being close together.

Assay [3] has as its target T2, human CRF2α receptor (Homo sapiens, UniProt Q13324).
T2 construct: expressed in transfected cells; host or cells: TeloHEAC
T2 sequence (Q13324 1-411): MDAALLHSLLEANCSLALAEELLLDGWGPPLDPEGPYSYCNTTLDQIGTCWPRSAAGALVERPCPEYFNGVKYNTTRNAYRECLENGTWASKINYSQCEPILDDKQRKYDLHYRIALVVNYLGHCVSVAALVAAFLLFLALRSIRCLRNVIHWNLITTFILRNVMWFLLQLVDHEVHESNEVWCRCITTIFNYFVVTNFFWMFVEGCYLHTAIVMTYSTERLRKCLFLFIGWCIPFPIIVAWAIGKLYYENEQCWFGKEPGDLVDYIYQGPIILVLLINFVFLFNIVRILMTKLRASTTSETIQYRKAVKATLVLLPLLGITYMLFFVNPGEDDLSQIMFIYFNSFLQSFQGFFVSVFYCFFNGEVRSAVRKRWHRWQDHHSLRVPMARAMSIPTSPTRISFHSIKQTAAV
The assay is described as follows: cAMP agonism at human CRF2 α receptor in TeloHEAC cells (Example 7). The following applies: cAMP HTRF, TeloHEAC cells stably expressing human CRF2 α. The method in brief: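 HTRF ratio 665/620 nm, read 1 h after lysis reagents, reports cAMP. Cells: thawed stocks, 2000/well, 30 min RT with compound in HBSS, 20 mM HEPES, 0 or 0.1% HSA, 2 mM IBMX. Activity normalised to UCN2 1000 nM = 100%; EC50 from half-maximal activation.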

Where [4] appears, read: 0% HSA, read-out: EC50 [nM], 0% HSA.
The mark [5] stands for this setting: 0.1% HSA, read-out: EC50 [nM], 0.1% HSA.

For `CC[C@H](C)[C@H](N)C(=O)N[C@H](C(=O)N[C@@H](CC(C)C)C(=O)N[C@@H](CO)C(=O)N[C@@H](CC(C)C)C(=O)N[C@@H](CC(=O)O)C(=O)N[C@H](C(=O)N1CCC[C@H]1C(=O)N[C@H](C(=O)N[C@@H](CCCCN)C(=O)N[C@@H](CC(C)C)C(=O)N[C@@H](CCCCNC(=O)COCCOCCNC(=O)COCCOCCNC(=O)CC[C@H](NC(=O)CCCCCCCCCCCCCCCCCCC(=O)O)C(=O)O)C(=O)N[C@@H](CCC(N)=O)C(=O)N[C@H](C(=O)N[C@@H](CC(C)C)C(=O)N[C@@H](CC(C)C)C(=O)N[C@@H](CCC(=O)O)C(=O)N[C@@H](CCC(N)=O)C(=O)N[C@@H](CCC(=O)O)C(=O)N[C@@H](CCCNC(=N)N)C(=O)N[C@@H](CCC(N)=O)C(=O)N[C@@H](CCCCN)C(=O)N[C@@H](CCCCN)C(=O)N[C@@H](CCC(N)=O)C(=O)N[C@@H](CCCNC(=N)N)C(=O)N[C@@H](CCC(=O)O)C(=O)N[C@@H](CCC(N)=O)C(=O)N[C@@H](C)C(=O)N[C@@H](CCC(=O)O)C(=O)N[C@H](C(=O)N[C@@H](CC(N)=O)C(=O)NC(C)(C)C(=O)N[C@@H](CCC(N)=O)C(=O)N[C@H](C(=O)N[C@@H](CC(C)C)C(=O)N[C@@H](C)C(=O)N[C@@H](CCC(N)=O)C(=O)N[C@H](C(N)=O)C(C)C)[C@@H](C)CC)[C@@H](C)O)[C@@H](C)CC)[C@@H](C)O)C(C)C)C(C)C` [compound 80] (H-IVLSLDVPTKLK([AEEA-AEEA-γGlu-C20 diacid])QILLEQERQKKQREQAETN[Aib]QILAQV-NH2), the EC50 in assay [1] was over 1000 nM; in assay [2], 5.2 nM; in assay [3] (setting [4]) it was 0.9 nM; in assay [3] (setting [5]) it was 92.5 nM. Besides, the Emax in assay [1] came out at 12.7%.

For `CC[C@H](C)[C@H](N)C(=O)N[C@H](C(=O)N[C@@H](CC(C)C)C(=O)N[C@@H](CO)C(=O)N[C@@H](CC(C)C)C(=O)N[C@@H](CC(=O)O)C(=O)N[C@H](C(=O)N1CCC[C@H]1C(=O)N[C@H](C(=O)N[C@@H](CCCCN)C(=O)N[C@@H](CC(C)C)C(=O)N[C@@H](CCCCNC(=O)COCCOCCNC(=O)COCCOCCNC(=O)CC[C@H](NC(=O)CCCCCCCCCCCCCCCCC(=O)O)C(=O)O)C(=O)N[C@@H](CCC(N)=O)C(=O)N[C@H](C(=O)N[C@@H](CC(C)C)C(=O)N[C@@H](CC(C)C)C(=O)N[C@@H](CCCCN)C(=O)N[C@@H](CCC(N)=O)C(=O)N[C@@H](CCC(=O)O)C(=O)N[C@@H](CCCNC(=N)N)C(=O)N[C@@H](CCC(N)=O)C(=O)N[C@@H](CCCCN)C(=O)N[C@@H](CCCCN)C(=O)N[C@@H](CCC(N)=O)C(=O)N[C@@H](CCCNC(=N)N)C(=O)N[C@@H](CCC(=O)O)C(=O)N[C@@H](CCC(N)=O)C(=O)N[C@@H](C)C(=O)N[C@@H](CCC(=O)O)C(=O)N[C@H](C(=O)N[C@@H](CC(N)=O)C(=O)N[C@@H](CCCCN)C(=O)N[C@@H](CCC(N)=O)C(=O)N[C@H](C(=O)N[C@@H](CC(C)C)C(=O)N[C@@H](C)C(=O)N[C@@H](CCC(N)=O)C(=O)N[C@H](C(N)=O)C(C)C)[C@@H](C)CC)[C@@H](C)O)[C@@H](C)CC)[C@@H](C)CC)C(C)C)C(C)C` [compound 85] (H-IVLSLDVPIKLK([AEEA-AEEA-γGlu-C18 diacid])QILLKQERQKKQREQAETNKQILAQV-NH2; N-terminus assumed), the EC50 was over 1000 nM in assay [1], 0.73 nM in assay [2], 0.1 nM in assay [3] (setting [4]) and 3.58 nM in assay [3] (setting [5]). For the same molecule, the Emax in assay [1] amounted to 0.14%.

In the case of `CC[C@H](C)[C@H](N)C(=O)N[C@H](C(=O)N[C@@H](CC(C)C)C(=O)N[C@@H](CO)C(=O)N[C@@H](CC(C)C)C(=O)N[C@@H](CC(=O)O)C(=O)N[C@H](C(=O)N1CCC[C@H]1C(=O)N[C@H](C(=O)N[C@@H](CCCCN)C(=O)N[C@@H](CC(C)C)C(=O)N[C@@H](CCCCNC(=O)COCCOCCNC(=O)COCCOCCNC(=O)CC[C@H](NC(=O)CCCCCCCCCCCCCCCCC(=O)O)C(=O)O)C(=O)N[C@@H](CCC(N)=O)C(=O)N[C@H](C(=O)N[C@@H](CC(C)C)C(=O)N[C@@H](CC(C)C)C(=O)N[C@@H](CCCCN)C(=O)N[C@@H](CCC(N)=O)C(=O)N[C@@H](CCC(=O)O)C(=O)N[C@@H](CCCNC(=N)N)C(=O)N[C@@H](CCC(N)=O)C(=O)N[C@@H](CCCCN)C(=O)N[C@@H](CCCCN)C(=O)N[C@@H](CCC(N)=O)C(=O)N[C@@H](CCCNC(=N)N)C(=O)N[C@@H](CCC(=O)O)C(=O)N[C@@H](CCC(N)=O)C(=O)N[C@@H](C)C(=O)N[C@@H](CCCCN)C(=O)N[C@H](C(=O)N[C@@H](CC(N)=O)C(=O)N[C@@H](CCCCN)C(=O)N[C@@H](CCC(N)=O)C(=O)N[C@H](C(=O)N[C@@H](CC(C)C)C(=O)N[C@@H](C)C(=O)N[C@@H](CCC(N)=O)C(=O)N[C@H](C(N)=O)C(C)C)[C@@H](C)CC)[C@@H](C)O)[C@@H](C)CC)[C@@H](C)CC)C(C)C)C(C)C` [compound 86] (H-IVLSLDVPIKLK([AEEA-AEEA-γGlu-C18 diacid])QILLKQERQKKQREQAKTNKQILAQV-NH2; N-terminus assumed), the EC50 in assay [1] is over 1000 nM; in assay [2], 0.69 nM; in assay [3] (setting [4]), 0.11 nM; in assay [3] (setting [5]) it was 5.7 nM. For the same molecule, in assay [1], the Emax stood at 15.9%.

As for `CC[C@H](C)[C@H](N)C(=O)N[C@H](C(=O)N[C@@H](CC(C)C)C(=O)N[C@@H](CO)C(=O)N[C@@H](CC(C)C)C(=O)N[C@@H](CC(=O)O)C(=O)N[C@H](C(=O)N1CCC[C@H]1C(=O)N[C@H](C(=O)N[C@@H](CCCCN)C(=O)N[C@@H](CC(C)C)C(=O)N[C@@H](CCCCNC(=O)COCCOCCNC(=O)COCCOCCNC(=O)CC[C@H](NC(=O)CCCCCCCCCCCCCCCCC(=O)O)C(=O)O)C(=O)N[C@@H](CCC(N)=O)C(=O)N[C@H](C(=O)N[C@@H](CC(C)C)C(=O)N[C@@H](CC(C)C)C(=O)N[C@@H](CCCCN)C(=O)N[C@@H](CCC(N)=O)C(=O)N[C@@H](CCC(=O)O)C(=O)N[C@@H](CCCNC(=N)N)C(=O)N[C@@H](CCC(N)=O)C(=O)N[C@@H](CCCCN)C(=O)N[C@@H](CCCCN)C(=O)N[C@@H](CCC(N)=O)C(=O)N[C@@H](CCCNC(=N)N)C(=O)N[C@@H](CCC(=O)O)C(=O)N[C@@H](CCCCN)C(=O)N[C@@H](C)C(=O)N[C@@H](CCCCN)C(=O)N[C@H](C(=O)N[C@@H](CC(N)=O)C(=O)N[C@@H](CCCCN)C(=O)N[C@@H](CCC(N)=O)C(=O)N[C@H](C(=O)N[C@@H](CC(C)C)C(=O)N[C@@H](C)C(=O)N[C@@H](CCC(N)=O)C(=O)N[C@H](C(N)=O)C(C)C)[C@@H](C)CC)[C@@H](C)O)[C@@H](C)CC)[C@@H](C)CC)C(C)C)C(C)C` [compound 87] (H-IVLSLDVPIKLK([AEEA-AEEA-γGlu-C18 diacid])QILLKQERQKKQREKAKTNKQILAQV-NH2; N-terminus assumed), the concentration giving a half-maximal response (EC50) in assay [1] is over 1000 nM; in assay [2] it was 1.49 nM; in assay [3] (setting [4]) it was 0.23 nM; in assay [3] (setting [5]) it was 16.2 nM. For the same molecule, the Emax in assay [1] was -0.2%.
